The values below come from patent US20170360795A1, “TREATMENT OF CANCERS USING PI3 KINASE ISOFORM MODULATORS” (INFINITY PHARMACEUTICALS, INC., priority 2013, published 2017).

Data set [1] relates to CD63 expression on CCR3+ basophils. As to the kind of experiment: ex vivo anti-FcεR1 basophil activation assay, healthy subjects. In kind it is in vivo, human. As to conditions: single and multiple doses.
The subject of data set [2] is CD38/CD69 positive CLL cells. As to the kind of experiment: phosphospecific flow cytometry of circulating CLL cells in patients. In kind it is in vivo, human. Particulars: 25 mg BID. An excerpt:
In order to characterize the surface phenotype of the cells present in CLL patients, antibodies against, among others, CD38 and CD69 were included in the panel, and the samples were subjected to phosphor-specific flow cytometry.
(In general: In flow cytometry, cells or beads pass a laser one at a time.)

The test system of data set [3] is SU-DHL-4. As to the kind of experiment: cellular growth inhibition assay (72 hour CTG), DLBCL. In kind it is cell-based. Particulars: SU-DHL-4 (GCB).
Data set [4] concerns serum biomarkers. Nature of the data set: Serum biomarkers in patients, 28 day cycles. The data set is classed as in vivo, human.
Data set [5] relates to pPRAS40 and pS6 in CTCL cells. Nature of the data set: western blotting in CTCL cell lines. In kind it is cell-based. As for the experimental part:
MJ and HuT78 cells were grown in IMDM 20% FBS, and HH cells were grown in RPMI 10% FBS.
Cells were washed with fresh media and lysed by adding 1x SDS sample buffer, followed by sonication. After heating the sample at 95-100° C. for 5 minutes and cooling on ice, the sample was microcentrifuged and run on SDS-PAGE. The resulting samples were electrotransfereed to nitrocellulose or PVDF membrane. After washing, the membrane was incubated in blocking buffer for 1 hour at room temperature, followed by washing with TBS/T. The membrane and primary antibodies are then inclubated overnight at 4° C. The membrane was again washed with TBS/T, and incubated with appropriate HRP-conjugated secondary antibodies. For biotinylated primary antibodies, the membrane was incubated with HRP-Streptavidin in milk. Upon completion of the incubation, the membrane was washed with TBS/T and was subjected to detection using LumiGLO®.
In general terms: A western blot detects proteins with antibodies after separation by electrophoresis.

Data set [6] has as its system hemodynamic and electrocardiographic parameters. Nature of the data set: Cardiovascular telemetry study. In kind it is in vivo, cynomolgus monkey. Particulars: up to 150 mg/kg. The source says: Four non-naive, male monkeys implanted with radiotelemetry transmitters were utilized during the conduct of this study.
In data set [7] the test system is phospho-AKT in OCI-LY-8 cells. As to the kind of experiment: phospho-AKT after BCR crosslinking. The data set is classed as cell-based. The source says: These biochemical findings indicate a mechanistic rationale for combination of PI3K-δ,γ and BTK inhibition.

Structures are written as SMILES. Entries after “also recorded” stand apart in the source; their conditions may differ.

Turning to `C[C@H](Nc1ncnc2[nH]cnc12)c1cc2cccc(Cl)c2c(=O)n1-c1ccccc1` [Compound 292], the “time of maximum reduction of basophil activation” value in data set [1] worked out at 1 hr post dose. In data set [1] (all dose levels), the “reduction of basophil activation (CD63 expression)” value is on record as “dose-dependent reduction; also recorded: reduced in a dose-dependent manner”. Also, the “CD38 positive, CD69 positive and CD38/CD69 double positive circulating CLL cells” value in data set [2] was “significant reductions”. Further, the “sensitivity in cellular growth inhibition assay” value in data set [3] is listed as “more sensitive; also recorded: nanomolar (nM) range”. For the same compound, in data set [4] (25 mg BID), the “levels of CLL biomarkers in serum” value is on record as “decrease”, the “levels of T-cell lymphoma biomarkers in serum” value is recorded as “decrease”, the “levels of iNHL biomarkers in serum” value is “decrease” and the “levels of lymphoma biomarkers in serum” value is listed as “decrease”. Besides, in data set [4] (25 mg or 75 mg BID), the “levels of CLL biomarkers in serum” value was “decrease” and the “levels of iNHL biomarkers in serum” value is on record as “decrease”. The “level of pPRAS40” value in data set [5] (HH, HuT78 and MJ cells, western blotting) is “dose dependently reduced”. In addition, the pS6 result in data set [5] (resistant MJ cells) is “not modulated”. The “waveform abnormalities or arrhythmias” value in data set [6] is “no waveform abnormalities or arrhythmias”. Also, the “phospho-AKT increase after BCR crosslinking” value in data set [7] is listed as “completely inhibited”.
